Assay results reported in US9458095B2, “Oligo-benzamide compounds and their use in treating cancers” (The Board of Regents of the University of Texas System, priority 2011, dated 2016).
Entries after “also recorded” stand apart in the source; their conditions may differ.

Experiments:
Format in all cases: cell-based
[1] = molecular target: T1, ARΔ1 (Homo sapiens, UniProt P10275); assay: ARE-luciferase reporter in PC-3 cells expressing ARΔ1; settings: 100 nM peptidomimetic, 48 h
T1 construct: expressed in transfected cells; host or cells: PC-3 cells
T1 sequence (P10275 540-920 limits assumed): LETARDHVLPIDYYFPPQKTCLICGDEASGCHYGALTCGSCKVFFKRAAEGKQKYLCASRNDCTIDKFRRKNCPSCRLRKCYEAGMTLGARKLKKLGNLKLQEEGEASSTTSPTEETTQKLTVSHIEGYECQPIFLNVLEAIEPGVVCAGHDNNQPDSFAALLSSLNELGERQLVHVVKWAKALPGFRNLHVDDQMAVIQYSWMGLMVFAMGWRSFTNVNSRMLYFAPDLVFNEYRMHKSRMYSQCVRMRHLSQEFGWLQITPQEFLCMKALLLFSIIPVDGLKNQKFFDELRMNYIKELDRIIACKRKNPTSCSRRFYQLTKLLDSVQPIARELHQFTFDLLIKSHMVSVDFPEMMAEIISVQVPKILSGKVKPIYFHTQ
Method: (§1) FIGS. 2A-D. Oligobenzamide control of PC3 cell proliferation. (FIG. 2A) Structure of AR deletion mutants with numbered exons (FIG. 2B) Effect of D2 and T6 on basal (AI) and AD transcription. PC-3 cells were transiently transfected with ARE-luciferase along with plasmids expressing ARwt (FIG. 2B), ARv7 (FIG. 2C) or ARΔ1 (FIG. 2D). Cells were maintained for 48 h either without (EtOH) or with (1 nM DHT) and in the presence of 100 nM of peptidomimetic or volume equivalent of vehicle (DMSO) control. Luciferase assay results are shown. Data is normalized to the basal level of expression with AR wt in PC3 cells.
Since the WxxLF motif is also present in the truncated forms of the androgen receptor, the inventors then evaluated the ability of the peptidomimetics to block ARv7-driven transcription from a minimal ARE luciferase reporter. […] These findings were confirmed with a synthetic AR with point mutations in the WxxLF motif (data not shown).

[2] = tested on: ARv7 regulated genes; assay: Q-PCR of ARv7 regulated genes; settings: data not shown
From the text: Finally, confirmation of the role of T6 in modulating ARv7 driven transcription was obtained by evaluation of the gene expression of ARv7 regulated genes.

[3] = molecular target: T2, ARv7 (Homo sapiens, UniProt P10275); assay: Rat probasin-luciferase reporter in M12 cells with ARv7; design: expressed in transfected cells; host or cells: M12 cells (A9); settings: 100 nM peptidomimetic, 48 h
T2 sequence (P10275 1-644 isoform P10275-3): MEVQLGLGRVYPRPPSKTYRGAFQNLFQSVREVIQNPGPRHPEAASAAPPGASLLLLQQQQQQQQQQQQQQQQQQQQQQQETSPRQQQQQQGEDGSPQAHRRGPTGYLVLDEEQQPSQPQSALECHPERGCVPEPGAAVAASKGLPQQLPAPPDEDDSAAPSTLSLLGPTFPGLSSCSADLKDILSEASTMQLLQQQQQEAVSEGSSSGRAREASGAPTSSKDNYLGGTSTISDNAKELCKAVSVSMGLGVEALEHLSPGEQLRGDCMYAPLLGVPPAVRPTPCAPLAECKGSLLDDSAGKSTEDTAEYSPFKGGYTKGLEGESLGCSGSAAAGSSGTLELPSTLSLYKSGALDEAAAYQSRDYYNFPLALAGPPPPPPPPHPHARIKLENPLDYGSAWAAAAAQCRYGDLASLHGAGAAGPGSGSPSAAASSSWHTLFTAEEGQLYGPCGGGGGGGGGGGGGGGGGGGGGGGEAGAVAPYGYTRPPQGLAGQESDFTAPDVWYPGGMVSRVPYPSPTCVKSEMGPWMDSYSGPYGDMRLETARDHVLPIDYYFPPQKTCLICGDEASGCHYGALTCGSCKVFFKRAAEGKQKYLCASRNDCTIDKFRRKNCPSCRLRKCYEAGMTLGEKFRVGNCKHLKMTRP
Method: FIG. 5. Effect of T6 on basal level of ARE expression in M12 cells. M12 cells were transiently transfected with the rat probasin-luciferase reporter and either ARwt or ARv7. Cells were maintained for 48 h without (EtOH) and in the presence of 100 nM of peptidomimetic or volume equivalent of vehicle (DMSO) control or 10 μM of MDV3100. Luciferase assay results are shown.

[4] = molecular target: T2, ARv7; assay: ARE-luciferase reporter in PC-3 cells expressing ARv7; design: expressed in transfected cells; host or cells: PC-3 cells (A4); M12 cells (A9); settings: 100 nM peptidomimetic, 48 h
Method: as §1
FIGS. 3A-B. Effect of T6 on basal transcription driven by splice variants. PC-3 cells were transiently transfected with ARE-luciferase along with plasmids expressing ARv7 (FIG. 3A) or AR567 (FIG. 3B). Cells were maintained for 48 h either without (EtOH) or with (1 nM DHT) and in the presence of 100 nM of peptidomimetic or volume equivalent of vehicle (DMSO) control. Luciferase assay results are shown. Data is normalized to the basal level of expression with AR wt in PC3 cells.
Since the WxxLF motif is also present in the truncated forms of the androgen receptor, the inventors then evaluated the ability of the peptidomimetics to block ARv7-driven transcription from a minimal ARE luciferase reporter. […]

- ARΔ1-mediated transcription [1]: not able to block
- expression of rat probasin reporter in M12 cells driven by ARv7 [3]: able to independently knock down
- ARv7-mediated transcription [4]: able to block; also recorded: decreases
SMILES: CC(C)COc1cc(C(N)=O)ccc1NC(=O)c1ccc(NC(=O)c2ccc([N+](=O)[O-])c(OCCc3ccc4ccccc4c3)c2)c(OCC(C)C)c1 [T6]
- expression of a panel of ARv7 regulated genes (Q-PCR) [2]: able to abrogate
